From patent publication US20250346621A1, “ASCAROSIDE SALTS” (Ascribe Bioscience Inc., priority 2022, published 2025)

Test system: Bipolaris sorokiniana
Assay: greenhouse-based plant pathogen assay: protection of wheat plants from Bipolaris sorokiniana damage
Assay type: in vivo
Details: two-week-old wheat plants sprayed with 1 μM, inoculated 24 h after treatment, symptoms quantified ten days after inoculation; compared with un-modified ascr #18; *P≤0.04
Description: The efficacy of the zinc salt of ascr #18 was compared to free ascr #18 in a greenhouse-based plant pathogen assay. Two-week-old wheat plants were sprayed with a solution containing 1 μM ascr #18, or 1 μM of the zinc salt (ascr #18)2Zn. 24 h after treatment, the plants were inoculated with spores of Bipolaris sorokiniana (causal agent of root rot and brown spot blotch). Disease symptoms were quantified ten days after inoculation by measuring the symptomatic area on the leaves.

In the case of CC(CCCCCCCCC(=O)[O-])OC1OC(C)C(O)CC1O.CC(CCCCCCCCC(=O)[O-])OC1OC(C)C(O)CC1O.[Zn+2] (stereo not shown) [(ascr #18)2Zn], the “protection against pathogen damage (symptomatic area on the leaves)” value is reported as “better protection against pathogen damage than un-modified ascr #18”.
